Measurements published in article PMC9975698, “Hyperoside alleviates toxicity of β-amyloid via endoplasmic reticulum-mitochondrial calcium signal transduction cascade in APP/PS1 double transgenic Alzheimer's disease mice” (Redox Biology, 2023).

Experiments:
APP and APP-β = experiment: Western blot of APP and APP-β in HT22 cells; assay type: cell-based
Experimental: After HYP treatment, the cells were lysed with RIPA. Protein concentrations were determined by Bio-Rad protein assay (Bio-Rad Laboratories, CA, USA). After electrophoretic separation, the gels were blotted and stained with primary antibodies. Binding of antibodies was visualized with peroxidase-coupled secondary antibodies using ECL Western Blotting detection reagents (Invitrogen, Scotland, UK). Band intensities were quantified using ImageJ software. Data were obtained from three independent experiments.

HT22 cells = experiment: Real time mitochondrial membrane potential (rhodamine 123); assay type: cell-based; settings: rhodamine 123-stained HT22 cells, Aβ 30 μM with HYP 20, 40, 80 μM
Excerpt: Disruption of RyR2 regulation in the ER mediates the most important signal transduction cascade responses associated with AD [24]. RyR2 channels are implicated in many cellular functions, particularly mitochondrial metabolism. As confirmed in previous section (Fig. 9G), the expression of mRNA for MCU was decreased in RyR2 knockdown cells. […] Therefore, the role of HYP in regulating Aβ-induced ER-mitochondrial Ca^2+ homeostasis and apoptosis were further validated. […] It was reported that mitochondrial calcium level affects cellular energy by activating oxidative metabolism, mitochondrial respiration and ATP synthesis. […] To further verify the result, the membrane potential was stained with a more sensitive dye, JC-1 (Fig. 10C). JC-1 is a dual-emission mitochondrial membrane potential sensing dye, which is accumulated and aggregated in polarized (normal) mitochondria with excitation and emission in the red spectrum at ∼590 nm. […] It is noteworthy that increased mitochondrial calcium influx can trigger apoptosis. To further explore the protective role of HYP in Aβ -induced neuronal cell death, HT22 cells were co-treated with Aβ aggregates and HYP for 24 h. The expression level of selected apoptotic markers including Bcl-2, Bax and cyto-c were detected by Western blot (Fig. 10E).

APP/PS1 mice [1] = experiment: Rotarod test; assay type: in vivo; settings: HYP nasal, every 3 days, 8 weeks
Experimental: All animal care and experimental procedures were performed in accordance with the “Institutional Animal Care and User Committee Guidelines” of the Macau University of Science and Technology. APP/PSEN1 (APP/PS1) mice (N000175) were purchased from the Nanjing Institute of Biomedical Sciences, Nanjing University, China, weighing 25 ± 5 g. The animals were housed in a temperature-controlled room with a 12 h light/dark cycle and given ad libitum food and water. Male mice were randomly divided into the following 6 experimental groups. (a) wild-type group (n = 6), (b) APP/PS1 group (n = 6), (c) HYP (20 mg/kg group) (n = 7), (d) HYP (40 mg/kg) group (n = 8), (e) HYP (80 mg/kg) group (n = 8) and (f) memantine (MEM) (10 mg/kg) positive control group (n = 8). HYP was dissolved in the solvent containing 10% DMSO, 40% PEG300 and 5% Tween-80 in PBS, and administrated via nasal injection for every 3 days with a volume of 0.5 μL/g of body weight for 8 consecutive weeks. The rotarod test was used to monitor motor coordination. The test consisted of placing the animal on a rotating rod with a rotational speed of 25 rpm (Yuyan, Shanghai, China) until the animal fell to the ground and the movement time was recorded. The test was performed three times with an interval of 300 s, and the mean of the test results were calculated.

Aβ aggregate = biological target: T1, Aβ aggregate (Homo sapiens, UniProt P05067); experiment: LC/MS/MS Aβ binding propensity (reduction of HYP peak area in MRM); settings: HYP 20–80 μM with 30 μM Aβ aggregate vs HYP alone
T1 construct: purchased DGpeptites, Hangzhou, CHINA
T1 sequence (P05067 672-713 limits assumed): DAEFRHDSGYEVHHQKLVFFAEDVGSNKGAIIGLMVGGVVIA
Excerpt: Quercetin-3-O-β-D-galactopyranoside (Hyperoside, HYP), belongs to the class of flavonol glycosides and is derived from Crataegus pinnatifida Bunge Aβ is a well-known biomarker correlated to AD, therefore, the effect of HYP in targeting Aβ was investigated by molecular docking. […] HYP with Aβ molecular surface interaction and hydrogen bonding information were shown in supplementary 1A and 1B. […] The formation of Aβ aggregate and its particle size was verified by DLS (Fig. 1C). While the average particle size of the Aβ monomer is 365.62 nm, the particle size of Aβ aggregate is 1877 nm (Fig. 1D). The detection on the formation of Aβ aggregate was then performed by using the ThT fluorescence assay. ThT is a benzothiazole-like small molecule that specifically binds to amyloid fibrils. […] The direct binding affinity of HYP to Aβ aggregate was confirmed by the BLI assay. […] By using HYP alone (without Aβ aggregate incubation) as the control, all incubation mixtures were analyzed by using LC/MS/MS under the same chromatographic conditions according to our previous reported detection method. The quantitative reduction (%) in the peak area, representing the Aβ binding propensity of the tested compound [39] is used for statistical analysis.

[2] = Survival, body weight and organ index during the in vivo experiment; design: species or system mice; settings: HYP 20/40/80 mg/kg nasal, every 3 days, 8 weeks
Experimental: All animal care and experimental procedures were performed in accordance with the “Institutional Animal Care and User Committee Guidelines” of the Macau University of Science and Technology. APP/PSEN1 (APP/PS1) mice (N000175) were purchased from the Nanjing Institute of Biomedical Sciences, Nanjing University, China, weighing 25 ± 5 g. The animals were housed in a temperature-controlled room with a 12 h light/dark cycle and given ad libitum food and water. Male mice were randomly divided into the following 6 experimental groups. (a) wild-type group (n = 6), (b) APP/PS1 group (n = 6), (c) HYP (20 mg/kg group) (n = 7), (d) HYP (40 mg/kg) group (n = 8), (e) HYP (80 mg/kg) group (n = 8) and (f) memantine (MEM) (10 mg/kg) positive control group (n = 8). HYP was dissolved in the solvent containing 10% DMSO, 40% PEG300 and 5% Tween-80 in PBS, and administrated via nasal injection for every 3 days with a volume of 0.5 μL/g of body weight for 8 consecutive weeks.

APP/PS1 mice [3] = experiment: RT-PCR validation of calcium-related genes in mice; assay type: in vivo; settings: HYP group compared to APP/PS1 group
Experimental: To investigate the molecular mechanism of HYP, initial data (36,668 raw reads) obtained from the RNA sequencing were performed. […] In GO classification, the unigenes were annotated in three major categories (Fig. 8B). […] For the biological process category, most of the unigenes were matched to immune and signaling processes. For the cellular component category, most of the unigenes were assigned to cell and cell part. For the molecular function category, binding activity accounted for the largest proportion. […] Gene set enrichment analysis (GSEA) has been extensively applied to identify underlying pathways. In Fig. 8D, GSEA analysis of calcium channels was performed in conjunction with the previous AD hypothesis. Next, the relative expression levels of the hub genes in the APP and HYP-treated mice groups were examined by RT-PCR analysis.

O=c1c(O[C@@H]2O[C@H](CO)[C@H](O)[C@H](O)[C@H]2O)c(-c2ccc(O)c(O)c2)oc2cc(O)cc(O)c12 [HYP, Quercetin-3-O-β-D-galactopyranoside]
protein level of APP and APP-β (APP and APP-β): reduced the protein level of both APP and APP-β
mitochondrial membrane potential, real time (HT22 cells): attenuated the decrease of membrane potential triggered by Aβ
motor ability (time retained on the rotating rod) (APP/PS1 mice [1]): improved after HYP treatment
decrease in the peak area of HYP in MRM (Aβ binding propensity) (Aβ aggregate): dose-dependent binding affinity
survival, body weight and organ index [2]: all mice survived without significant changes in body weight
mRNA expression levels of calcium-related genes (APP/PS1 mice [3]): mRNA expression levels of Cav2.3, Cav1.3, NCLX and TRPV4 were decreased
